According to article PMC3758386 (Psychopharmacology, 2013):
Values joined by “and” are separate entries in the source; they are usually repeats but may differ in a detail not shown here. Equal entries are not always repeated.

What was measured:
K+ Channel hERG = K+ Channel hERG (Homo sapiens, UniProt Q12809); experiment: receptor screen, K+ Channel hERG; format: binding; conditions: from Ki values of Table 2
Y335A mutant DAT = conditions: transfected cells, cited from earlier work
rats = experiment: Place conditioning; format: in vivo; conditions: rat
[1] = system: extracellular DA levels in the NAC shell; experiment: In vivo microdialysis, extracellular DA in NAC shell; conditions: rat; for rate of increase in DA concentrations: ±SEM; for DA concentrations in NAC shell at times of conditioning sessions compared with 3.0 mg/kg cocaine (165% of basal): pretreatment 0, 45, 90 min
DAT = experiment: radioligand binding, DAT; conditions: from Ki values of Table 2
[2] = i.p. (1 to 10 mg/kg), injected immediately before conditioning sessions
[3] = 10 mg/kg i.p., initial phase, first 30 min (cocaine: up to the maximum)

Chain of K+ Channel hERG (Q12809 whole entry): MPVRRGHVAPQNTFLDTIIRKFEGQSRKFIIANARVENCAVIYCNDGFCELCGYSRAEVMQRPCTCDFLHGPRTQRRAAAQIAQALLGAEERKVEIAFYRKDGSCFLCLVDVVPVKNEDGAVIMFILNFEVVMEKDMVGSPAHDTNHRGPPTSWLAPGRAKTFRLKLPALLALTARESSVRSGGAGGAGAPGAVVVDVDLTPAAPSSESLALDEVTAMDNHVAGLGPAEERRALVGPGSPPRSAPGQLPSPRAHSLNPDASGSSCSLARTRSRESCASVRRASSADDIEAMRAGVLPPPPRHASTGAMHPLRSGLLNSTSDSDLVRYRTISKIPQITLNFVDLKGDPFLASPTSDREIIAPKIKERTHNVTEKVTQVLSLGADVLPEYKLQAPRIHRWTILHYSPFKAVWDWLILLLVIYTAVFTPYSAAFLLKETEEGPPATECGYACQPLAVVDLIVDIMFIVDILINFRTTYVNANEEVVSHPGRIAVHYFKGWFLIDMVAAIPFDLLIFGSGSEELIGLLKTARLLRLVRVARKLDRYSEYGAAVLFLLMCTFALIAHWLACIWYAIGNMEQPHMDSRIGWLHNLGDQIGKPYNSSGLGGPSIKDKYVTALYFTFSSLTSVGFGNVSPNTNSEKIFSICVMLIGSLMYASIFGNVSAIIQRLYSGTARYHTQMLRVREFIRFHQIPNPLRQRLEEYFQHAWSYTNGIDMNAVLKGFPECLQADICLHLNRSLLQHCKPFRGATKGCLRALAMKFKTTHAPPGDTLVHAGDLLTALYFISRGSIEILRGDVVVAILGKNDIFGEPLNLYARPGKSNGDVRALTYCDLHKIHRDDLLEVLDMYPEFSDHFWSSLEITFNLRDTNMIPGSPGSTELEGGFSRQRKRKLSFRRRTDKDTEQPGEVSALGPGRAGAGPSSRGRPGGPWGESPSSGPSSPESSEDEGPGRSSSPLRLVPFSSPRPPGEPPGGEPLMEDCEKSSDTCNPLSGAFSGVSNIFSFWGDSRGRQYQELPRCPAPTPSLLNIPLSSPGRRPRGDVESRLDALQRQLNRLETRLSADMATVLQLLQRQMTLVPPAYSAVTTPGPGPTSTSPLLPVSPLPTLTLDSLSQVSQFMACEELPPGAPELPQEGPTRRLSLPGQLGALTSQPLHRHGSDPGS

SMILES: CCOC(=O)[C@@H]1C(OC(c2ccc(Cl)cc2)c2ccc(Cl)cc2)C[C@@H]2CC[C@H]1N2C (mixture of isomers) [MFZ 4-86, (±)-2α-carboethoxy-3R-[bis(4-chlorophenyl)methoxy]tropane]
- selectivity K+ hERG channel over the DAT (K+ Channel hERG): ~ 20 fold
- potency in Y335A mutant DAT relative to wild-type DAT (fold lower) (Y335A mutant DAT; ref Loland et al. 2008): ~13 fold
- place conditioning (time allocated to compound-paired compartment) (rats; [2]): without significant place-conditioning effects
- effect on dialysate DA levels from the NAC shell ([1]; 1.0 mg/kg i.p.): increases in DA that did not achieve statistical significance
- effect on dialysate DA levels from the NAC shell ([1]; 3.0 mg/kg i.p.): also increased DA concentrations, though less than at the higher dose
- time after injection at which DA exceeded 165% of basal values ([1]; 3.0 mg/kg i.p.): 50 min
- rate of increase in DA concentrations ([1]; 3.0 mg/kg i.p., initial phase (cocaine: up to the maximum)): 3.05 (±0.270) %/min
- DA concentrations in NAC shell at times of conditioning sessions compared with 3.0 mg/kg cocaine (165% of basal) ([1]; 3.0 mg/kg i.p.): levels that approximated those of cocaine in all but the first 30 min
- duration of increase in DA levels ([1]; 10 mg/kg i.p.): remained elevated for the entire five-hr session
- time after injection at which DA exceeded 165% of basal values ([1]; 10 mg/kg i.p.): 20 min
- time after injection until which DA increase continued (peak) ([1]; 10 mg/kg i.p.): about 120 min
- rate of increase in DA concentrations [1, 3]: 6.74 (±0.371) %/min
- DA concentrations in NAC shell at times of conditioning sessions compared with 3.0 mg/kg cocaine (165% of basal) ([1]; 10.0 mg/kg i.p.): levels that exceeded those of the 3.0 mg/kg dose of cocaine at all pretreatment times

SMILES: COC(=O)[C@@H]1C(OC(c2ccc(Cl)cc2)c2ccc(Cl)cc2)C[C@@H]2CC[C@H]1N2C (mixture of isomers) [MFZ 4-87, (±)-2α-carbomethoxy-3R-[bis(4-chlorophenyl)methoxy]tropane]
- selectivity K+ hERG channel over the DAT (K+ Channel hERG): ~ 20 fold
- place conditioning (time allocated to compound-paired compartment) (rats; [2]): did not produce a change in allocation of time to the compound-paired compartment
- selectivity for the DAT compared to any other site assayed (DAT): ~ 30 fold
- increase in dialysate DA concentrations ([1]; 1.0 mg/kg i.p.): ≤ 165 % of basal levels
- DA concentrations in NAC shell at times of conditioning sessions compared with 3.0 mg/kg cocaine (165% of basal) ([1]; 3.0 mg/kg i.p.): levels that approximated those of cocaine in all but the first 30 min
- increase in dialysate DA concentrations ([1]; 3.0 mg/kg i.p., slightly exceeded): exceeded 165 % of basal levels
- duration of increase in DA levels ([1]; 10 mg/kg i.p.): ≥ 4 h
- maximum / maintained DA concentration ([1]; 10 mg/kg i.p.): about 350 % of basal levels
- time after injection until which DA increase continued (peak) ([1]; 10 mg/kg i.p.): about 160 min
- rate of increase in DA concentrations [1, 3]: 5.59 (±0.712) %/min
- DA concentrations in NAC shell at times of conditioning sessions compared with 3.0 mg/kg cocaine (165% of basal) ([1]; 10.0 mg/kg i.p.): levels that exceeded those of the 3.0 mg/kg dose of cocaine at all pretreatment times

SMILES: COC(=O)[C@H]1[C@@H](OC(=O)c2ccccc2)C[C@@H]2CC[C@H]1N2C [cocaine, (−)-cocaine, reference compound]
- potency in Y335A mutant DAT relative to wild-type DAT (Y335A mutant DAT; ref Loland et al. 2002): reduced by about two orders of magnitude
- place conditioning (time allocated to compound-paired compartment) (rats; i.p., each dose tested, injected immediately before sessions): significant place conditioning
- effect on dialysate DA levels from the NAC shell ([1]; 3.0 mg/kg i.p.): significantly increased extracellular DA concentrations
- rate of increase in DA concentrations ([1]; 3.0 mg/kg i.p., initial phase (cocaine: up to the maximum), 3 mg/kg): 4.84 (±0.359) %/min and 4.84 %/min
- effect on dialysate DA levels from the NAC shell ([1]; 10 mg/kg i.p.): significantly increased extracellular DA concentrations
- rate of increase in DA concentrations [1, 3]: 11.4 (±0.860) %/min
